Reference: PMC3436870, “The Conserved Residue Arg46 in the N-Terminal Heptad Repeat Domain of HIV-1 gp41 Is Critical for Viral Fusion and Entry” (PLoS ONE, 2012)
Ends that are not written are not given here.

Tests used:
HIV-1 IIIB = assay: Inhibition of HIV-1IIIB infection of MT-2 cells, p24 ELISA; assay type: cell-based; settings: HIV-1 IIIB at 100 TCID50, peptide overnight, p24 antigen ELISA on fourth day post-infection
Procedure: The inhibitory activity of the NHR- and CHR-peptides on HIV-1IIIB infection was determined as previously described. In brief, 1×10^4 MT-2 cells were infected with HIV-1 IIIB at 100 TCID50 (50% tissue culture infective dose) in 200 µl culture medium in the presence or absence of the test peptide overnight. Then the culture supernatants were removed, and fresh media were added. On the fourth day post-infection, 100 µl of culture supernatants were collected from each well, mixed with equal volumes of 5% Triton X-100 and assayed for p24 antigen by an in-house ELISA as described before.

[1] = test system: HIV-1IIIB-mediated cell-cell fusion (H9/HIV-1IIIB-infected cells with MT-2 cells); assay type: cell-based; settings: calcein-AM-labeled H9/HIV-1IIIB-infected cells with MT-2 cells (ratio 1:5), 37°C, 2 h; fused cells counted under fluorescence microscope; read-out: IC50 (nM) for inhibition of HIV-1IIIB-mediated cell-cell fusion
Source text: To detect HIV-1 mediated cell-cell fusion, we performed a dye transfer assay as previously described. […] Then under an inverted fluorescence microscope (Zeiss, Germany) with an eyepiece micrometer disc, we calculated the fused and unfused calcein-labeled HIV-1-infected cells. Previously developed methods were applied to calculate the percent inhibition of cell-cell fusion and the IC50 values.

Row | Sequence | IC50 (HIV-1 IIIB) [nM] | IC50 [1] [nM]
1 | WMEWDREINNYTSLIHSLIEASQNQQEKNEQELL [C34 E137A] | 12.2 ± 1.28 | 4.681 ± 0.029
2 | WMEWDREINNYTSLIHSLIERSQNQQEKNEQELL [C34 E137R] | 22.1 ± 1.8 | 5.32 ± 1.29
